The values that follow are results of earlier work, collected in patent US20170215417A1, “ANTIMICROBIAL COMPOSITIONS” (LIVIONEX, Inc., priority 2013, published 2017).

Structures are written as SMILES. Read-outs that look alike come from different tables or passages of the source.

The subject of data set [1] is Trichomichosis axillaris polymicrobial infection. Particulars: for average time for resolution of the disease: then antimicrobial cream or lotion (Kim, Korean J Med Mycol. 2005).
The conditions of data set [2]: @ 79° F.

Consider `O=C(OOC(=O)c1ccccc1)c1ccccc1` [benzoyl peroxide], for which the “irritation and contact dermatitis with standard treatment” value in data set [1] (standard treatment: shaving, then antimicrobial cream or lotion) is “often results in irritation and contact dermatitis”. Besides, the “average time for resolution of the disease” value in data set [1] (standard treatment: shaving) was 3 weeks.
Consider `CC[C@H]1OC(=O)[C@H](C)[C@@H](O[C@H]2C[C@@](C)(OC)[C@@H](O)[C@H](C)O2)[C@H](C)[C@@H](O[C@@H]2O[C@H](C)C[C@H](N(C)C)[C@H]2O)[C@](C)(O)C[C@@H](C)C(=O)[C@H](C)[C@@H](O)[C@]1(C)O` [erythromycin], for which the “irritation and contact dermatitis with standard treatment” value in data set [1] (human, in vivo) is “often results in irritation and contact dermatitis”. Besides, in data set [1] (standard treatment: shaving), the “average time for resolution of the disease” value is 3 weeks.
Regarding `CS(C)(=O)=O` [MSM, methylsulfonylmethane], in data set [2], the water solubility is listed as 34 % w/v.
